Test results reported in ChEMBL document CHEMBL6078686, “Synthesis of 1-Hydroxy(and 1-Alkoxy, 1-Acyloxy)-1H-indoles and evaluations of their suppressive activities against tumor growth through inhibiting lactate dehydrogenase A” (Eur J Med Chem, 2025).
pIC50: −log10 of the molar value. Activity calls are given as the source filed them. The calls are words filed in the database; no cut-off is given here.

Tests used:
[1] = Cytotoxicity against mouse AML12 cells assessed as inhibition of cell growth measured after 48 hrs incubation by MTT assay; format: toxicity, cell-based
[2] = system: PANC-1; assay: Cytotoxicity against human PANC-1 cells assessed as inhibition of cell growth measured after 48 hrs incubation by MTT assay; format: functional
[3] = system: MCF7; assay: Cytotoxicity against human MCF7 cells assessed as inhibition of cell growth measured after 48 hrs incubation by MTT assay; format: functional
[4] = system: HeLa; assay: Cytotoxicity against human HeLa cells assessed as inhibition of cell growth measured after 48 hrs incubation by MTT assay; format: functional
[5] = target: T1, L-lactate dehydrogenase A chain (Homo sapiens, UniProt P00338); assay: Non-competitive inhibition of human recombinant LDHA assessed as ratio of Km/Vmax in presence of pyruvate by measuring NADH fluorescence at 40 nM by Lineweaver-Burk plot analysis
[6] = target: T1, L-lactate dehydrogenase A chain; assay: Inhibition of human recombinant LDHA assessed as conversion of NADH […] at by spectrofluorometry
[7] = target: T1, L-lactate dehydrogenase A chain; assay: Non-competitive inhibition of human recombinant LDHA assessed as ratio of Km/Vmax in presence of pyruvate by measuring NADH fluorescence at 160 nM by Lineweaver-Burk plot analysis
[8] = Cytotoxicity against mouse Hepa1-6 cells assessed as inhibition of cell growth measured after 48 hrs incubation by MTT assay; format: toxicity, cell-based, Hepa 1-6
[9] = system: U-87 MG; assay: Cytotoxicity against human U87 cells assessed as inhibition of cell growth measured after 48 hrs incubation by MTT assay; format: functional, U-87MG ATCC
[10] = system: DLD-1; assay: Cytotoxicity against human DLD-1 cells assessed as inhibition of cell growth measured after 48 hrs incubation by MTT assay; format: functional
[11] = system: A549; assay: Cytotoxicity against human A549 cells assessed as inhibition of cell growth measured after 48 hrs incubation by MTT assay; format: functional
[12] = target: T1, L-lactate dehydrogenase A chain; assay: Inhibition of intracellular LDHA activity in human DLD-1 cell lysate assessed as conversion of NADH […] by spectrofluorometry; format: subcellular
[13] = Cytotoxicity against human T HESCs cells assessed as inhibition of cell growth measured after 48 hrs incubation by MTT assay; format: toxicity, cell-based
[14] = system: CCCCCCOCc1c(C(=O)OC)n(O)c2cccc(Br)c12; assay: Non-competitive inhibition of human recombinant LDHA assessed as Vmax in presence of pyruvate by measuring NADH fluorescence at 100 nM by Lineweaver-Burk plot analysis
[15] = system: COC(=O)c1c(COCCc2ccccc2)c2c(Br)cccc2n1OC; assay: Non-competitive inhibition of human recombinant LDHA assessed as Km in presence of pyruvate by measuring NADH fluorescence at 160 nM by Michaelis-Menten analysis
[16] = system: CCCCCCOCc1c(C(=O)OC)n(O)c2cccc(Br)c12; assay: Non-competitive inhibition of human recombinant LDHA assessed as Km in presence of pyruvate by measuring NADH fluorescence at 25 nM by Michaelis-Menten analysis
[17] = system: CCCCCCOCc1c(C(=O)OC)n(O)c2cccc(Br)c12; assay: Non-competitive inhibition of human recombinant LDHA assessed as Vmax in presence of pyruvate by measuring NADH fluorescence at 25 nM by Lineweaver-Burk plot analysis
[18] = system: COC(=O)c1c(COCCc2ccccc2)c2c(Br)cccc2n1OC; assay: Non-competitive inhibition of human recombinant LDHA assessed as Km in presence of pyruvate by measuring NADH fluorescence at 40 nM by Michaelis-Menten analysis
[19] = system: CCCCCCOCc1c(C(=O)OC)n(O)c2cccc(Br)c12; assay: Non-competitive inhibition of human recombinant LDHA assessed as Km in presence of pyruvate by measuring NADH fluorescence at 100 nM by Michaelis-Menten analysis
[20] = system: COC(=O)c1c(COCCc2ccccc2)c2c(Br)cccc2n1OC; assay: Non-competitive inhibition of human recombinant LDHA assessed as Vmax in presence of pyruvate by measuring NADH fluorescence at 160 nM by Lineweaver-Burk plot analysis
[21] = system: COC(=O)c1c(COCCc2ccccc2)c2c(Br)cccc2n1OC; assay: Non-competitive inhibition of human recombinant LDHA assessed as Vmax in presence of pyruvate by measuring NADH fluorescence at 40 nM by Lineweaver-Burk plot analysis
[22] = system: DLD-1; assay: Induction of apoptosis in human DLD-1 cells assessed as caspase 9 at 20 to 40 uM measured after 48 hrs by Western blot analysis; format: functional, cell-based; conditions: dose 20-40 µM
[23] = system: DLD-1; assay: Induction of apoptosis in human DLD-1 cells assessed as PARP at 20 to 40 uM measured after 48 hrs by Western blot analysis; format: functional, cell-based; conditions: dose 20-40 µM
[24] = target: T1, L-lactate dehydrogenase A chain; assay: Non-competitive inhibition of human recombinant LDHA assessed as ratio of Km/Vmax in presence of pyruvate by measuring NADH fluorescence at 100 nM by Lineweaver-Burk plot analysis
[25] = target: T1, L-lactate dehydrogenase A chain; assay: Non-competitive inhibition of human recombinant LDHA assessed as ratio of Km/Vmax in presence of pyruvate by measuring NADH fluorescence at 25 nM by Lineweaver-Burk plot analysis
[26] = Toxicity in male athymic mouse subcutaneously inoculated with human DLD-1 cells assessed as weight loss at 5 to 25 mg/kg abdominally injected daily for 2 weeks after 15 days of tumor injection measured after 2 weeks; format: organism-based; conditions: in vivo, 336 h, dose 5-25 mg/kg
[27] = system: DLD-1; assay: Induction of apoptosis in human DLD-1 cells assessed as caspase 3 at 20 to 40 uM measured after 48 hrs by Western blot analysis; format: functional, cell-based; conditions: dose 20-40 µM
[28] = system: DLD-1; assay: In vivo tumor suppressor activity against human DLD-1 cells subcutaneously implemented in male athymic mouse model assessed as reduction in tumor weight at 5 to 25 mg/kg abdominally injected daily for 2 weeks after 15 days of tumor injection measured after 2 weeks; format: functional, organism-based; conditions: dose 5-25 mg/kg
[29] = system: DLD-1; assay: In vivo tumor suppressor activity against human DLD-1 cells subcutaneously implemented in male athymic mouse model assessed as caspase 3 activation in tumor tissue at 25 mg/kg abdominally injected daily for 2 weeks after 15 days of tumor injection measured after 2 weeks; format: functional, organism-based
[30] = Toxicity in male athymic mouse subcutaneously inoculated with human DLD-1 cells assessed as injury/inflammation in kidney at 5 to 25 mg/kg abdominally injected daily for 2 weeks after 15 days of tumor injection measured after 2 weeks; format: organism-based; conditions: in vivo, 336 h, dose 5-25 mg/kg
[31] = Toxicity in male athymic mouse subcutaneously inoculated with human DLD-1 cells assessed as injury/inflammation in liver at 5 to 25 mg/kg abdominally injected daily for 2 weeks after 15 days of tumor injection measured after 2 weeks; format: organism-based; conditions: in vivo, 336 h, dose 5-25 mg/kg
[32] = system: DLD-1; assay: In vivo tumor suppressor activity against human DLD-1 cells subcutaneously implemented in male athymic mouse model assessed as reduction in tumor volume at 5 to 25 mg/kg abdominally injected daily for 2 weeks after 15 days of tumor injection measured after 2 weeks; format: functional, organism-based; conditions: dose 5-25 mg/kg

pIC50 [6]	inhibition [6]	inhibition [12]	Compound	GI50 at 48 h [1] [µM]	GI50 [2] [µM]	GI50 [3] [µM]	GI50 [4] [µM]	GI50 at 48 h [8] [µM]	GI50 [9] [µM]	GI50 [10] [µM]	GI50 [11] [µM]	GI50 at 48 h [13] [µM]	also measured
6.91	Dose-dependent-effect	inactive	COC(=O)c1c(COCCc2ccccc2)c2c(Br)cccc2n1OC	85.2	> 100	> 100	83.5	56.2	66.7	> 100	> 100	> 100	Vmax/Km [5]: 0.029; Vmax/Km [7]: 0.038
			L-lactate dehydrogenase A chain (Homo sapiens) (from UniProt P00338)										Vmax [14]: 3.6; Km [15]: 189 µM; Km [16]: 254 µM; Vmax [17]: 4.54; Km [18]: 172 µM; Km [19]: 170 µM; Vmax [20]: 5.01; Vmax [21]: 5.84
7.60	Dose-dependent-effect	Dose-dependent-effect	CCCCCCOCc1c(C(=O)OC)n(O)c2cccc(Br)c12	> 100	31.4	31.7	39.6	49.6	60.9	27	45.6	> 100	Activity [22]: Active; Activity [23]: Active; Vmax/Km [24]: 0.047; Vmax/Km [25]: 0.056; Activity [26]: Non-toxic; Activity [27]: Active; Activity [28]: Active; Activity [29]: Active; Activity [30]: Non-toxic; Activity [31]: Non-toxic; Activity [32]: Active; pIC50 [12]: 4.93
			COC(=O)c1cc2c(C(F)(F)F)cc(-c3ccccc3)cc2n1O							106			
